One block for each compound: values may come before it.
What was measured:
[1] = tested on: Mia PaCa-2 cells (KRAS G12C mutant cell line); assay: Inhibition of Mia PaCa-2 cell proliferation (CellTiter-Glo, 72 h); assay type: cell-based, human; conditions: Homo sapiens
Excerpt: (§1) As a preferred embodiment of the present disclosure, the detection method of NCI-H358 cell proliferation inhibitory activity and Mia PaCa-2 cell proliferation inhibitory activity is as follows: through cell culture, adding different concentrations of compound solutions to the cultured cells, continuing the culture for a period of time and measuring the cell proliferation; • further, the method of cell culture is: adjusting the cells to a suitable cell concentration with complete medium and spreading the cell suspension in well plates for culture; preferably, the culture conditions are 37° C., 5% CO2 incubator overnight; preferably, the cell suspension is spread in 96-well plates, 48-well plates, 24-well plates, 12-well plates or 6-well plates, more preferably 96-well plates; preferably, the suitable cell concentration is 1500-4000 cells/well, with 90 μL of cell suspension added to each well; • further, the compound solution is prepared with DMSO and may be further diluted with medium; preferably, the compound solution has a concentration gradient starting from 100 μM at 4-fold dilution, more preferably starting from 30 μM at 4-fold dilution, most preferably starting from 10 μM at 4-fold dilution; • further, the volume of the compound solution or solvent added to each well is 1-10 μL, preferably 10 μL; • further, after adding the compound solution, the conditions for continuing the culture are 37° C., 5% CO2 incubator; preferably, the culture time is 24-72 h, more preferably 72 h; • further, the method for measuring cell proliferation is MTT, CCK8, CellTiter-Glo; preferably the method is CellTiter-Glo; • further, the cell proliferation is read using a microplate reader, more preferably a BioTek Synergy H1 microplate reader.
(§2) When NCI-H358 or Mia PaCa-2 cells were cultured to the appropriate fusion level, the NCI-H358 or Mia PaCa-2 cells were collected, and the cells were adjusted to the appropriate cell concentration using a complete medium, and the cell suspension was spread in a 96-well plate, 90 μL per well, and placed in a 37° C., 5% CO2 incubator overnight; and compound solutions of different concentrations were prepared using DMSO and culture medium; and a solvent control was set, the compound solution was added to a 96-well plate, 10 μL per well, at 37° C. in a 5% CO2 incubator for 72 hours; CellTiter-Glo solution was added thereto and the mixture was mixed well by shaking, incubated for 10 min in the dark, and read by BioTek Synergy H1 microplate reader.
(§3) The luminescence signal values were used to calculate the inhibition rate, the concentration and the inhibition rate were fitted to a nonlinear regression curve using Graphpad Prism software, then the IC50 value was obtained.

in vitro = in vitro ADME; conditions: 0.5 μM
Description: Animal or human whole blood was collected, then the blood was put into a test tube containing anticoagulant, centrifuged at 3500 rpm for 10 min, and the upper layer of pale yellow plasma was collected. • 2), 10 μM of tested compound (m/M/V=C)
The compound was weighed, the stock solution was prepared with DMSO and the working solution was prepared with 100 mM phosphate buffer. • 3), 10 μM of positive control (1) Propantheline (Propantheline Mr=449.4 Da)
• 1) 285 μL of plasma and 15 μL of 10 μM compound (tested compound) were added in turn in a 96-well plate, and incubated at 37° C. • 2) 40 μL was taken out at 0, 15, 30, 60, 90, 120 min, respectively, and 160 μL of acetonitrile termination solution containing internal standard was added. • 3) After centrifugation (3500 rpm, 10 min), 50 μL of supernatant was taken out, and then diluted with 50 μL DDH2O and injected to LC-MS/MS.
• Instrument: Shimadzu LC-20 AD • Chromatographic column: phenomenex Gemiu® C18 (50*4.6 mm, 5 μM particle size); • mobile phase: A: acetonitrile, B: 0.1% formic acid solution […], 2.0-2.1 min: 90% A→5% A; flow rate: 0.8 mL/min; running time: 5.0 min; injection volume: 5 μL.
• Instrument: API4000 Liquid Chromatography-Mass Spectrometry, AB, USA; • the ion source was electrospray ionization source (ESI); • the temperature of dry gas (N2) was 500° C.; • electrospray voltage was 5500V; • the detection method was positive ion detection; • the scanning mode was selective response monitoring (MRM). • the scanning time was 0.1 s.

[2] = tested on: NCI-H358 cells (KRAS G12C mutant cell line); assay: Inhibition of NCI-H358 cell proliferation (CellTiter-Glo, 72 h); assay type: cell-based, human; conditions: Homo sapiens
Excerpt: as §1, §2, §3

human KRAS G12C protein = target: T1, human KRAS G12C protein (Homo sapiens, UniProt P01116, G12C); assay: Thermal shift: melting temperature of KRAS G12C protein; assay type: binding; conditions: for Tm (° C.): KRAS G12C protein 5.37 μM with compound 10 μM, 1 hour incubation
T1 construct: purchased Beijing SinoBiological Co., Ltd. 12259-H07E2
Description: A solution containing […] (pH 7.5), 1 mM DTT, 5×SYPRO Orange and 150 mM NaCl was prepared as the experimental buffer, and a final concentration of 5.37 μM human KRAS G12C protein was added thereto. […] After incubating at room temperature in the dark for 1 hour, the PCR tube was put into the PCR instrument, QuantStudio Software v1.3 was opened, and the melting temperature of KRAS G12C protein in different treatment groups was detected by melt curve function (heating from 25° C. to 95° C., 0.03° C./s). The experimental data file of PCR instrument was imported into thermal shift software, and the melting temperature (Tm) of each treatment group was obtained, and the change value of melting temperature (Δ Tm) was obtained by subtracting the Tm of DMSO solvent control group.

[3] = compound 10 μM, Tm minus Tm of DMSO solvent control

SMILES: C=CC(=O)N1CCN(c2nc(=O)n(-c3c(SC)ccnc3C(C)C)c3nc(-c4c(N)c(F)cc(Cl)c4F)c(Cl)cc23)[C@@H](C)C1 [Embodiment 194, 4-((S)-4-acryloyl-2-methylpiperazin-1-yl)-7-(2-amino-5-chloro-3,6-difluorophenyl)-6-chloro-1-(2-isopropyl-4-(methylthio)pyridin-3-yl) pyrido [2,3-d] pyrimidin-2 (1H)-one]
IC50 [1]: 7 nM

SMILES: CC(C)[N+](C)(CCOC(=O)C1c2ccccc2Oc2ccccc21)C(C)C [Propantheline, reference compound]
Residual rate (%) 0 min (in vitro; human): 100.00%
Residual rate (%) 15 min (in vitro; human): 79.98%
Residual rate (%) 30 min (in vitro; human): 50.52%
Residual rate (%) 60 min (in vitro; human): 14.65%
Residual rate (%) 120 min (in vitro; human): 0.72%
Residual rate (%) 0 min (in vitro; mouse): 100.00%
Residual rate (%) 15 min (in vitro; mouse): 79.79%
Residual rate (%) 30 min (in vitro; mouse): 48.66%
Residual rate (%) 60 min (in vitro; mouse): 23.39%
Residual rate (%) 120 min (in vitro; mouse): 6.66%

SMILES: C=CC(=O)N1CCN(c2nc(=O)n(-c3c(SC)ccnc3C(C)C)c3nc(-c4c(O)ccc(F)c4F)c(F)cc23)[C@@H](C)C1 [Embodiment 153, 4-((S)-4-acryloyl-2-methylpiperazin-1-yl)-7-(2,3-difluoro-6-hydroxyphenyl)-6-fluoro-1-(2-isopropyl-4-(methylthio)pyridin-3-yl) pyrido [2,3-d] pyrimidin-2 (1H)-one]
IC50 [2]: 68 nM
IC50 [1]: 76 nM

SMILES: C=CC(=O)N1C[C@H](C)N(c2nc(=O)n(-c3c(SC)ccnc3C(C)C)c3nc(-c4c(N)c(C)cc(F)c4F)c(Cl)cc23)C[C@H]1C [Embodiment 201, 4-((2S, 5R)-4-acryloyl-2,5-dimethylpiperazin-1-yl)-7-(2-amino-5,6-difluoro-3-methylphenyl)-6-chloro-1-(2-isopropyl-4-(methylthio)pyridin-3-yl) pyrido [2,3-d] pyrimidin-2 (1H)-one]
IC50 [1]: 4.9 nM

SMILES: C=CC(=O)N1C[C@H](C)N(c2nc(=O)n(-c3c(SC)ccnc3C(C)C)c3nc(-c4c(N)c(Cl)cc(Cl)c4F)c(Cl)cc23)C[C@H]1C [Embodiment 193, 4-((2S, 5R)-4-acryloyl-2,5-dimethylpiperazin-1-yl)-7-(2-amino-3,5-dichloro-6-fluorophenyl)-6-chloro-1-(2-isopropyl-4-(methylthio)pyridin-3-yl) pyrido [2,3-d] pyrimidin-2 (1H)-one]
IC50 [1]: 18 nM

SMILES: C=CC(=O)N1[C@H](C)CN(c2nc(=O)n(-c3c(SC)ccnc3C(C)C)c3nc(-c4c(O)cccc4F)c(F)cc23)C[C@@H]1C [Embodiment 115, 4-((3S, 5R)-4-acryloyl-3,5-dimethylpiperazin-1-yl)-6-fluoro-7-(2-fluoro-6-hydroxyphenyl)-1-(2-isopropyl-4-(methylthio)pyridin-3-yl) pyrido [2,3-d] pyrimidin-2 (1H)-one]
Tm (° C.) (human KRAS G12C protein): 55.2 °C
ΔTm at 10 µM (human KRAS G12C protein; [3]): 6.6 °C

SMILES: C=CC(=O)N1CCN(c2nc(=O)n(-c3c(SC)ccnc3C(C)C)c3nc(-c4c(F)ccc(F)c4N)c(Cl)cc23)[C@@H](C)C1 [Embodiment 198, 4-((S)-4-acryloyl-2-methylpiperazin-1-yl)-7-(2-amino-3,6-difluorophenyl)-6-chloro-1-(2-isopropyl-4-(methylthio)pyridin-3-yl)pyrido[2,3-d]pyrimidin-2(1H)-one]
IC50 [1]: 6 nM

Next, values leading:

IC50 [2]: 79 nM
IC50 [1]: 68 nM
SMILES: C=CC(=O)N1CCN(c2nc(=O)n(-c3c(SC)ccnc3C(C)C)c3nc(-c4c(F)cccc4F)c(F)cc23)[C@@H](C)C1 [Embodiment 154, (S)-4-(4-acryloyl-2-methylpiperazin-1-yl)-7-(2,6-difluorophenyl)-6-fluoro-1-(2-isopropyl-4-(methylthio)pyridin-3-yl)pyrido[2,3-d]pyrimidin-2(1H)-one]

Tm (° C.) (human KRAS G12C protein): 57.3 °C
ΔTm at 10 µM (human KRAS G12C protein; [3]): 8.7 °C
SMILES: C=CC(=O)N1CCN(c2nc(=O)n(-c3c(C)ccnc3C(C)C)c3nc(-c4cccnc4SC)c(F)cc23)[C@@H](C)C1 [Embodiment 136, (S)-4-(4-acryloyl-2-methylpiperazin-1-yl)-6-fluoro-1-(2-isopropyl-4-methylpyridin-3-yl)-7-(2-(methylthio)pyridin-3-yl) pyrido [2,3-d] pyrimidin-2 (1H)-one]

IC50 [1]: 59 nM
SMILES: C=CC(=O)N1CCN(c2nc(=O)n(-c3c(SC)ccnc3C(C)C)c3nc(-c4c(F)cccc4Cl)c(Cl)cc23)[C@@H](C)C1 [Embodiment 208, 4-((S)-4-acryloyl-2-methylpiperazin-1-yl)-6-chloro-7-(2-chloro-6-fluorophenyl)-1-(2-isopropyl-4-(methylthio)pyridin-3-yl) pyrido [2,3-d] pyrimidin-2 (1H)-one]

Tm (° C.) (human KRAS G12C protein): 55.5 °C
ΔTm (° C.) (human KRAS G12C protein; [3]): 6.9 °C
SMILES: C=CC(=O)N1CCN(c2nc(=O)n(-c3c(C)ccnc3C(C)C)c3nc(-c4c(F)cccc4C(=O)N(C)C)c(F)cc23)[C@@H](C)C1 [Embodiment 73]

IC50 [1]: 5.2 nM
SMILES: C=CC(=O)N1CCN(c2nc(=O)n(-c3c(SC)ccnc3C(C)C)c3nc(-c4c(N)c(C)cc(F)c4F)c(Cl)cc23)[C@@H](C)C1 [Embodiment 195, 4-((S)-4-acryloyl-2-methylpiperazin-1-yl)-7-(2-amino-5,6-difluoro-3-methylphenyl)-6-chloro-1-(2-isopropyl-4-(methylthio)pyridin-3-yl) pyrido [2,3-d] pyrimidin-2 (1H)-one]

IC50 [1]: 14 nM
SMILES: C=CC(=O)N1CCN(c2nc(=O)n(-c3c(SC)ccnc3C(C)C)c3nc(-c4c(C)cccc4F)c(Cl)cc23)[C@@H](C)C1 [Embodiment 206, 4-((S)-4-acryloyl-2-methylpiperazin-1-yl)-6-chloro-7-(2-fluoro-6-methylphenyl)-1-(2-isopropyl-4-(methylthio)pyridin-3-yl) pyrido [2,3-d] pyrimidin-2 (1H)-one]

IC50 [1]: 5.3 nM
SMILES: C=CC(=O)N1C[C@H](C)N(c2nc(=O)n(-c3c(SC)ccnc3C(C)C)c3nc(-c4c(N)c(F)cc(Cl)c4F)c(Cl)cc23)C[C@H]1C [Embodiment 196, 4-((2S, 5R)-4-acryloyl-2,5-dimethylpiperazin-1-yl)-7-(2-amino-5-chloro-3,6-difluorophenyl)-6-chloro-1-(2-isopropyl-4-(methylthio)pyridin-3-yl) pyrido [2,3-d] pyrimidin-2 (1H)-one]

— patent US12497396B2, “Nitrogen-containing heterocyclic derivatives, method therefor and application therefor as inhibitors of KRAS G12C for the treatment of cancers” (SHANGHAI HANSOH BIOMEDICAL CO., LTD., priority 2019, dated 2025)
